The target in the assay is T1, Interleukin-1 receptor-associated kinase 4 (Homo sapiens, UniProt Q9NWZ3).
T1 sequence (Q9NWZ3 whole entry): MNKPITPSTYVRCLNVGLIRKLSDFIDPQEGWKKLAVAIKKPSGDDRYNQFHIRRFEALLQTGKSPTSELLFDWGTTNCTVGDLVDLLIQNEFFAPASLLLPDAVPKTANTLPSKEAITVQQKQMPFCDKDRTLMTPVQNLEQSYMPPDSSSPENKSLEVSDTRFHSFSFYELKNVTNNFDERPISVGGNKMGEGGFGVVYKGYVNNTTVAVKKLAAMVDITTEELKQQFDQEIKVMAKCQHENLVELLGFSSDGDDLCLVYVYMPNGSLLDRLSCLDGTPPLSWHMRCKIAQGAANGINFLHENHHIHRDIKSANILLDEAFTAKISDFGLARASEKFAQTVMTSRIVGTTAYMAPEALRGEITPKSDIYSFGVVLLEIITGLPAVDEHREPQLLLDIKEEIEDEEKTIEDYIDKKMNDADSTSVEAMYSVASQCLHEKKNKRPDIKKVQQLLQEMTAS
Kind of assay: IRAK4 Kinase Assay: For the assay, 11 different concentrations in the range from 20 μM to 0.073 nM were prepared from a 2 mM DMSO solution of the test substance. 50 nl of the respective solution were pipetted into a black low-volume 384-well microtitre plate (Greiner Bio-One, Frickenhausen, Germany), 2 μl of a solution of IRAK4 in assay buffer [50 mM HEPES pH 7.5, 5 mM MgCl2, 1.0 mM ….

Results on one compound are retold here after ChEMBL document CHEMBL5727056, “Substituted indazoles, methods for the production thereof, pharmaceutical preparations that contain said new substituted indazoles, and use of said new substituted indazoles to produce drugs” (2019).

A word on the IC50: it is the concentration that inhibits the measured activity by half. High values mean weaker potency in that assay, low ones greater potency in that assay.

In turn, `COCCn1cc2cc(NC(=O)c3cccc(C(F)(F)F)n3)c(CO)cc2n1` returned an IC50 of 0.136 µM.
